In patent US12017992B2, “Compounds for modulating mitochondrial function” (Mayo Foundation for Medical Education and Research, priority 2015, dated 2024):
Several values for one entry are separate records, joined by “and”; a condition that tells them apart may be missing. Equal values may be shown once. Entries after “also recorded” stand apart in the source; their conditions may differ. Read-outs that look alike come from different tables or passages of the source.

Experiments:
[1] = PK of C458 in mice, plasma and brain by LC-MS/MS; assay type: in vivo, mouse; conditions: for Brain Concentration / Plasma Concentration / concentration at 0.5 h / concentration at 1 h / concentration at 2 h: single mouse; for concentration at 0.5 h / concentration at 1 h / concentration at 2 h / half-life / Kp: mouse; for concentration at 0.5 h / concentration at 1 h / concentration at 2 h: 2 mg/kg
Protocol: FIG. 10 is a graph plotting the elimination rate for C458 in brain and plasma of mice treated with 2.5 mg/kg of the compound via intrafemoral vein injection. Animals were sacrificed at 30 minutes, 1 hour, and 2 hours post injection.
The feasibility of developing the C458 series was evaluated by determining the in vivo PK profile for C458. Re-synthesized C458 was administered intravenously to wild type mice at 2 mg/kg. Frozen serum and brain tissue samples were analyzed using a bioanalytical LC-MS/MS method.
A rough estimation of elimination rate and half-life of C458 was determined in vivo by delivering a dose of 2.5 mg/kg to each mouse via intrafemoral vein injection. Each group of animals (n=2) was sacrificed at 30 minutes, 1 hour, and 2 hours post injection. Blood and brain tissue was collected, flash frozen, and the concentration of C458 was estimated using a LC-MS/MS assay with a linear calibration curve from 1 ng/ml to 1 ug/ml in both plasma and brain.
For rough estimation of elimination rate and half-life, a one-compartment model and the first rate elimination was assumed. Plotting (Ln) of concentration vs. time provided the elimination rate and half-life of C458 in plasma and the brain (FIG. 10).

[2] = In vivo toxicity and histology of C458 in WT mice; set-up: species or system mouse; conditions: 50 mg/kg for one month ad libitum in drinking water
Protocol: To evaluate the toxicity of C458 in vivo, 2-month old breeding WT mice were treated with 50 mg/kg of C458 via drinking water. Untreated littermates were used as controls. After one month of treatment, adult and newborn animals were sacrificed and tissue was collected for histological examination.

ATP production = test: ATP levels in primary embryonic cortical neurons; assay type: cell-based, mouse; conditions: 10 nM to 5 μM, 24 hours
Protocol: FIGS. 12A and 12B are a pair of graphs plotting ATP levels in primary embryonic cortical neurons that were seeded on 96-well plates at 30,000 cells per well and treated with the indicated compounds at concentrations ranging from 10 nM to 5 μM, as indicated. ATP levels were measured 24 hours later using an ATP determination Kit (Life Technologies; Carlsbad, CA). ATP levels are expressed as a percent of vehicle treated (control) cells. All experiments were performed twice in 6 replicates.
FIG. 17 is a graph plotting ATP levels in primary embryonic cortical neurons after seeding on a 96-well plate at 30,000 cells per well and being treated seven days later with the indicated compounds at concentrations of 100 nM, 2 μM, and 5 μM. ATP levels were measured 24 hours after treatment using the bioluminescent CellTiter-GLO 2 assay (Promega, Madison, WI). All experiments were performed in 6 replicates.
To further characterize these nine new compounds, Complex I activity was measured in isolated mitochondria, and levels of ATP, NAD+, and NADH were measured in primary mouse embryonic cortical neurons (FIGS. 16-18).

MC65 cells = test: Efficacy against Aβ toxicity in MC65 Tet on/off cells (MTT assay); assay type: cell-based; conditions: for cell protective activity in Aβ-producing MC65 cells: 2.5 μM and 5 μM, compared to CP2; for EC50: nonlinear regression
Protocol: FIGS. 4A and 4B are a pair of graphs plotting survival of MC65 cells after treatment with the indicated compounds, in the presence (Tet/off) or absence (Tet/on) of Aβ expression. MC65 cells were cultured for 72 hours in the presence (on) or absence (off) of tetracycline in OPTI-MEM media without serum. […] Cell viability was measured with an MTT assay 72 hours later. Experiments were performed in triplicates. Every 96-well plate had its own on/off control. Four experimental compounds were tested per each plate. Experiments were repeated independently twice.
(§1) FIGS. 5A and 5B are a pair of graphs plotting survival of MC65 cells after treatment with the indicated compounds, in the presence (Tet/off) or absence (Tet/on) of Aβ expression. MC65 cells were cultured for 72 hours in the presence (on) or absence (off) of tetracycline in OPTI-MEM media without serum. Cells (Tet/on and Tet/off) at the time of plating were treated every 24 hours with vehicle (0.05% final DMSO) or experimental compounds (FIG. 5A, C458-C461; FIG. 5B, C462-C465) at 2.5 μM and 5 μM. Cell viability was measured with an MTT assay 72 hours later. Experiments were performed in triplicates. Every 96-well plate had its own on/off control. Four experimental compounds were tested per each plate. Experiments were repeated independently twice.
as §1, with “FIG. 6A is” for “FIGS. 5A and 5B are”, “graph” for “pair of graphs”, “(C470-C473)” for “(FIG. 5A, C458-C461; FIG. 5B, C462-C465)”, “twice. […] Toxicity of C463 under the same experimental conditions is shown for comparison. Cells were treated with 5 μM of each compound.” for “twice.”
FIGS. 9A-9D are a series of graphs plotting the half maximal effective concentration (EC50) for each of four experimental compounds against Aβ toxicity in MC65 Tet on/off cells. FIG. 9A, C455; FIG. 9B, C458; FIG. 9C, C460; FIG. 9D, C472.
FIGS. 11A and 11B are graphs plotting survival of MC65 cells cultured for 72 hours in the presence (on; FIG. 11A) or absence (off, FIG. 11B) of tetracycline in OPTI-MEM media without serum. Cells (Tet/on and Tet/off) at the time of plating were treated with either vehicle (0.05% final DMSO) or experimental compounds at 2.5 μM every 24 hours. Cell viability was measured with an MTT assay 72 hours later. Experiments were performed in triplicate, and every 96-well plate had its own on/off control. Four experimental compounds were tested per plate. Experiments were repeated independently twice.
FIGS. 15A and 15B are graphs plotting percent survival of MC65 cells cultured in the presence of tetracycline (Tet-On) (FIG. 15A) or without tetracycline (Tet-off) (FIG. 15B) in OPTI-MEM media without serum. […] Cell viability was measured with an MTT assay 72 hours after plating. Experiments were performed in triplicate, and were repeated independently twice.
The efficacy of all 24 compounds against Aβ toxicity was evaluated in MC65 cells. […] The viability of MC65 cells expressing Aβ (Tet/off, 40% viability) or not expressing Aβ (Tet/on, 100% viability) was measured after treatment with individual compounds. Results for all 24 compounds against Aβ toxicity are presented in FIGS. 4A, 4B, 5A, 5B, 6A, and 6B.
To further characterize the efficacy of these four compounds, the half maximal effective concentration (EC50) against Aβ toxicity in MC65 cells was measured using an MTT assay. […]

[3] = system: P++ MEFs (accelerated aging phenotype); test: Growth of P++ mouse embryonic fibroblasts (MTT assay); assay type: cell-based; conditions: 5 μM or 50 μM
Text: (§2) FIGS. 20A-20G are a series of graphs plotting the effect of the indicated compounds on survival of various cancer cells vs. control. FIG. 20A, HeLa cervical cancer cells; FIG. 20B, Panc1 pancreatic cancer cells; FIG. 20C, P-WT: mouse embryonic fibroblasts (MEFs; control); FIG. 20D, P++: MEFs; FIG. 20E, p53−/− ms T-cell lymphoma (TCL) cells; FIG. 20F, Patu pancreatic cancer cells; FIG. 20G, Su pancreatic cancer cells.
(§3) The following […] cell lines were used: HeLa (cervical cancer, FIG. 20A); Panc1 (pancreatic cancer, FIG. 20B); P-WT MEFs (control, FIG. 20C), P++ MEFs (accelerated aging phenotype, FIG. 20D) p53−/− ms TCL (FIG. 20E); Patu (pancreatic cancer, FIG. 20F), and Su (pancreatic cancer, FIG. 20G).

[4] = system: cancer cell lines (HeLa, Panc1, p53−/− ms TCL, Patu, Su); test: Survival of cancer cell lines (MTT assay); assay type: cell-based, human; conditions: 5 μM or 50 μM, particularly at the higher dose
Text: as §2, §3

NAD+ and NADH levels = NAD+ and NADH levels in primary embryonic cortical neurons (NAD+/NADH-GLO assay); assay type: cell-based, mouse; conditions: among C687-C695; 100 nM, 2 μM and 5 μM
Protocol: FIGS. 14A and 14B are graphs plotting NAD^+ and NADH levels (FIG. 14A) or the NAD^+/NADH ratio (FIG. 14B) in primary embryonic cortical neurons after treatment with the indicated compounds. Neurons were seeded on 96-well plates at 30,000 cells per well. Seven days later, cells were treated with each compound at 2 μM. NAD^+ and NADH levels were measured 24 hours later using the bioluminescent NAD^+/NADH-GLO assay (Promega; Madison, WI). NAD^+ and NADH levels are expressed as a percent of vehicle treated (control) cells (FIG. 14A). All experiments were performed in 6 replicates.
FIGS. 18A-18C are graphs plotting the level of NAD+ (FIG. 18A), the level of NADH (FIG. 18B), and the ratio of NAD+/NADH (FIG. 18C) in primary embryonic cortical neurons that were seeded on a 96-well plate at 30,000 cells per well and treated seven days later with the indicated compounds at concentrations 100 nM, 2 μM and 5 μM. NAD+, NADH, and NAD+/NADH ratio were measured using a bioluminescent NAD+/NADH-GLO assay (Promega). All experiments were performed in 6 replicates.

[5] = Comment on salt form (Table 3); assay type: physicochemical; conditions: TFA salt

Structure (SMILES): Cc1cccc(O[C@@H]2CCC[C@H](C(C)CNCc3ccncc3)C2)c1 (relative stereo) [Compound C458, cis-(N-(pyridin-4-ylmethyl)-2-(3-(m-tolyloxy)cyclohexyl)propan-1-amine)]
- Brain Concentration ([1]; 0.5 hr): 390 ng/g
- Plasma Concentration ([1]; 0.5 hr): 41.4 ng/mL
- Brain Concentration ([1]; 1 hr): 149 ng/g
- Plasma Concentration ([1]; 1 hr): 15.2 ng/mL
- Brain Concentration ([1]; 2 hr): 76.4 ng/g
- Plasma Concentration ([1]; 2 hr): 10.3 ng/mL
- bioavailability ([1]; from elimination rate and half-life in plasma and brain): good bioavailability
- CNS penetration ([1]; mice, intravenous): significant CNS penetration; also recorded: penetrates the blood brain barrier and accumulates in the brain
- concentration at 0.5 h ([1]; brain, intravenous, 0.5 hr, read-out: Brain Concentration): 316 ng/g
- concentration at 1 h ([1]; brain, intravenous, 1 hr, read-out: Brain Concentration): 118 ng/g
- concentration at 2 h ([1]; brain, intravenous, 2 hr, read-out: Brain Concentration): 68.2 ng/g
- half-life ([1]; brain, intravenous, 2.5 mg/kg intrafemoral vein injection, one-compartment model, first rate elimination, read-out: estimated half-life in brain): 42 min
- Kp ([1]; brain, intravenous, 2.5 mg/kg intrafemoral vein injection, read-out: concentration in the brain, times higher than in plasma): 7 to 8
- Kp ([1]; brain, iv, wild type mice, intravenously at 2 mg/kg, read-out: concentration in brain tissue, times higher (w/v) than in plasma): 7 to 10
- concentration at 0.5 h ([1]; plasma, intravenous, 0.5 hr, read-out: Plasma Concentration): 43.7 ng/mL
- concentration at 1 h ([1]; plasma, intravenous, 1 hr, read-out: Plasma Concentration): 13 ng/mL
- concentration at 2 h ([1]; plasma, intravenous, 2 hr, read-out: Plasma Concentration): 9.83 ng/mL
- half-life ([1]; plasma, intravenous, 2.5 mg/kg intrafemoral vein injection, one-compartment model, first rate elimination, read-out: estimated half-life in plasma): 48 min
- half-life ([1]; serum, iv, wild type mice, intravenously at 2 mg/kg, read-out: apparent t1/2 in the blood): 48 min
- histology of adult WT mice [2]: did not cause histological abnormalities
- pathology of newborn mice conceived by treated breeding WT mice [2]: no pathological abnormalities were detected
- effect on ATP production (ATP production): modestly reduced ATP production
- cell protective activity in Aβ-producing MC65 cells (MC65 cells; 72 hours): promising cell protective activity
- fold higher efficacy (lower EC50) of C458 than CP2 (MC65 cells; EC50 against Aβ toxicity): 20- to 30 fold and 30 fold
- fold higher efficacy of C458 than C455 and C460 (MC65 cells; EC50 against Aβ toxicity): 100 fold
- EC50 (MC65 cells; MC65, MTT assay): ~4 nM
- EC50 (MC65 cells; MTT assay): 3.59 nM

Structure (SMILES): Cc1cc2c(c(=O)o1)C=C1CCN(C(C)CCc3ccc(O)cc3)C[C@@H]1O2 (stereo partly drawn) [Compound C455]
- growth of P++ MEFs [3]: suppress the growth
- effect on ATP production (ATP production): modestly reduced ATP production
- growth of cancer cell lines [4]: suppressed growth of the cancer cell lines tested
- cell protective activity in Aβ-producing MC65 cells (MC65 cells; 72 hours): promising cell protective activity

Structure (SMILES): Cc1cc2c(c(=O)o1)C=C1CCN(C(=O)Cc3cccc(O)c3)C[C@@H]1O2 [Compound C460]
- growth of P++ MEFs [3]: suppress the growth
- effect on ATP production (ATP production): little or no effect
- growth of cancer cell lines [4]: suppressed growth of the cancer cell lines tested
- cell protective activity in Aβ-producing MC65 cells (MC65 cells; 72 hours): promising cell protective activity
- efficacy against Aβ toxicity (representative images, FIG. 6B) (MC65 cells; 5 μM, 72 hours, Tet/on and Tet/off): efficacy

Structure (SMILES): Cc1cccc(O[C@@H]2CCC[C@H](C(C)CN(C)Cc3ccncc3)C2)c1 (stereo partly drawn) [Compound C693]
- efficacy in increasing NADH and decreasing NAD+/NADH ratio (NAD+ and NADH levels): highest efficacy

Structure (SMILES): Cc1cccc(O[C@@H]2CCC[C@H](C(C)CNCc3ccncc3)C2)c1 (stereo partly drawn)
- Comments (salt form) [5]: Highly hygroscopic

Structure (SMILES): Cc1cccc(O[C@@H]2CCC[C@H](C(C)CN(Cc3ccncc3)C(C)C)C2)c1 (stereo partly drawn) [Compound C694]
- efficacy in increasing NADH and decreasing NAD+/NADH ratio (NAD+ and NADH levels): highest efficacy
